Measured values reported in EP0238060B1, “Cephalosporin derivatives, processes for their preparation and antibacterial agents” (Banyu Pharmaceutical Co., Ltd., priority 1986, dated 1987).
≈ marks a conversion by molar mass, not a printed value. Read-outs that look alike come from different tables or passages of the source.

Columns and labels:
[1] = test system: Enterobacter cloacae GN 5797; assay: Induction of β-lactamase by β-lactam antibiotics; format: cell-based; conditions: induced β-lactamase activity of crude enzyme; Concentration 10 µg/ml; Incubation time 3 hr; Substrate: 100 µM of cephaloridine
Experimental: The assay method for induction of β-lactamase by β-latam antibiotics was as follows: The test organism, Enterobacter cloacae GN 5797, was grown overnight in Mueller Hinton broth (Dlfco Laboratories, Detroit, Mich.) at 37°C. The culture was diluted l0-fold into 20 ml of the flesh medium and incubated with shaking at 37°C. After 2 hours of incubation, antibiotics were added to final concentrations of 50 µg/ml, l0 µg/ml and l µg/ml, and the incubation was continued. At l hour intervals after the addition of antibiotic, 5 ml of sample was taken, and immediately added with 0.l ml of 50 mM sodium azide. The cells were harvested and washed with 50 mM phosphate buffer (pH 7.0). The cells were suspended in 5 ml of 50 mM phosphate buffer and disrupted with a sonicater in an ice-water bath. The broken cells were centrifuged at l6,500 G for 40 minutes at 4°C, and the resulting supernatant fluid was used as the crude enzyme. β-Lactamase activity was determined by a spectrophotometric method (Antmicrob. Agents Chemother. 17, 355-358, 1980) with cephaloridine as substrate. The concentration of protein was determined by the method of Lowry (J. Biol. Chem. 193, 265-275, 1951).

[2] = test system: Ps.maltophilia GN 12873; assay: In vitro antibacterial activity, agar plate dilution method (MIC); format: cell-based, Pseudomonas maltophilia; conditions: Stenotrophomonas maltophilia, GN12873; Ps.maltophilia GN 12873 (β-Lactamase-producing strain); Mueller Hinton agar, inoculum 10⁶ CFU/ml, 37°C, 16 hours; read-out: Minimum Inhibitory Concentration (MIC: µg/ml)
[3] = test system: Ps.cepacia 23; assay: as above; format: cell-based, Pseudomonas cepacia; conditions: Burkholderia cepacia; Ps.cepacia 23; Mueller Hinton agar, inoculum 10⁶ CFU/ml, 37°C, 16 hours; read-out: Minimum Inhibitory Concentration (MIC: µg/ml)
[4] = test system: E.cloacae Nek 39; assay: as above; format: cell-based; conditions: Enterobacter cloacae, NEK39; E.cloacae Nek 39 (β-Lactamase-producing strain); Mueller Hinton agar, inoculum 10⁶ CFU/ml, 37°C, 16 hours; read-out: Minimum Inhibitory Concentration (MIC: µg/ml)
[5] = test system: K.pneumoniae No. 42; assay: as above; format: cell-based; conditions: Klebsiella pneumoniae, read-out: Minimum Inhibitory Concentration (MIC: µg/ml)
[6] = test system: K.pneumoniae PCI-602; assay: as above; format: cell-based; conditions: Klebsiella pneumoniae, PCI602; K.pneumoniae PCI-602; Mueller Hinton agar, inoculum 10⁶ CFU/ml, 37°C, 16 hours; read-out: Minimum Inhibitory Concentration (MIC: µg/ml)
[7] = test system: M.morganii GN5407; assay: as above; format: cell-based; conditions: Morganella morganii; M.morganii GN5407 (β-Lactamase-producing strain); Mueller Hinton agar, inoculum 10⁶ CFU/ml, 37°C, 16 hours; read-out: Minimum Inhibitory Concentration (MIC: µg/ml)
[8] = test system: Ps.aeruginosa IFO3445; assay: as above; format: cell-based; conditions: Pseudomonas aeruginosa; Ps.aeruginosa IFO3445; Mueller Hinton agar, inoculum 10⁶ CFU/ml, 37°C, 16 hours; read-out: Minimum Inhibitory Concentration (MIC: µg/ml)
[9] = test system: E.coli NIHJ JC2; assay: as above; format: cell-based; conditions: Escherichia coli, NIHJJC2; E.coli NIHJ JC2; Mueller Hinton agar, inoculum 10⁶ CFU/ml, 37°C, 16 hours; read-out: Minimum Inhibitory Concentration (MIC: µg/ml)
[10] = test system: S.epidermidis IAM12012; assay: as above; format: cell-based; conditions: Staphylococcus epidermidis; S.epidermidis IAM12012; Mueller Hinton agar, inoculum 10⁶ CFU/ml, 37°C, 16 hours; read-out: Minimum Inhibitory Concentration (MIC: µg/ml)
[11] = test system: C.freundii GN346/16; assay: as above; format: cell-based; conditions: Citrobacter freundii; C.freundii GN346/16; Mueller Hinton agar, inoculum 10⁶ CFU/ml, 37°C, 16 hours; read-out: Minimum Inhibitory Concentration (MIC: µg/ml)
[12] = test system: E.coli CSH(RE45); assay: as above; format: cell-based; conditions: Escherichia coli, 16 h, read-out: Minimum Inhibitory Concentration (MIC: µg/ml)
[13] = test system: S.aureus JS1; assay: as above; format: cell-based; conditions: Staphylococcus aureus; S.aureus JS1 (β-Lactamase-producing strain); Mueller Hinton agar, inoculum 10⁶ CFU/ml, 37°C, 16 hours; read-out: Minimum Inhibitory Concentration (MIC: µg/ml)
[14] = test system: S.marcescens IAM 1184; assay: as above; format: cell-based; conditions: Serratia marcescens, IAM1184; S.marcescens IAM 1184; Mueller Hinton agar, inoculum 10⁶ CFU/ml, 37°C, 16 hours; read-out: Minimum Inhibitory Concentration (MIC: µg/ml)
[15] = test system: Ps.aeruginosa AK 109; assay: as above; format: cell-based; conditions: Pseudomonas aeruginosa, AK109; Ps.aeruginosa AK 109; Mueller Hinton agar, inoculum 10⁶ CFU/ml, 37°C, 16 hours; read-out: Minimum Inhibitory Concentration (MIC: µg/ml)
[16] = test system: P.vulgaris No. 33; assay: as above; format: cell-based; conditions: Proteus vulgaris; P.vulgaris No. 33 (β-Lactamase-producing strain); Mueller Hinton agar, inoculum 10⁶ CFU/ml, 37°C, 16 hours; read-out: Minimum Inhibitory Concentration (MIC: µg/ml)
[17] = test system: E.coli GN5482; assay: as above; format: cell-based; conditions: Escherichia coli; E.coli GN5482 (β-Lactamase-producing strain); Mueller Hinton agar, inoculum 10⁶ CFU/ml, 37°C, 16 hours; read-out: Minimum Inhibitory Concentration (MIC: µg/ml)
[18] = test system: P.vulgaris HX-19; assay: as above; format: cell-based; conditions: Proteus vulgaris, HX19; P.vulgaris HX-19; Mueller Hinton agar, inoculum 10⁶ CFU/ml, 37°C, 16 hours; read-out: Minimum Inhibitory Concentration (MIC: µg/ml)
[19] = test system: Ps.aeruginosa AKR17; assay: as above; format: cell-based; conditions: Pseudomonas aeruginosa; Ps.aeruginosa AKR17; Mueller Hinton agar, inoculum 10⁶ CFU/ml, 37°C, 16 hours; read-out: Minimum Inhibitory Concentration (MIC: µg/ml)
[20] = test system: S.aureus 209P NIHJ-JC1; assay: as above; format: cell-based; conditions: Staphylococcus aureus; S.aureus 209P NIHJ-JC1; Mueller Hinton agar, inoculum 10⁶ CFU/ml, 37°C, 16 hours; read-out: Minimum Inhibitory Concentration (MIC: µg/ml)
[21] = test system: M.luteus ATCC9341; assay: as above; format: cell-based; conditions: Micrococcus luteus; M.luteus ATCC9341; Mueller Hinton agar, inoculum 10⁶ CFU/ml, 37°C, 16 hours; read-out: Minimum Inhibitory Concentration (MIC: µg/ml)
[22] = test system: E.coli CSH2 (RK1); assay: as above; format: cell-based; conditions: Escherichia coli, 16 h, read-out: Minimum Inhibitory Concentration (MIC: µg/ml)
[23] = test system: K.oxytoca GN10650; assay: as above; format: cell-based; conditions: Klebsiella oxytoca; K.oxytoca GN10650 (β-Lactamase-producing strain); Mueller Hinton agar, inoculum 10⁶ CFU/ml, 37°C, 16 hours; read-out: Minimum Inhibitory Concentration (MIC: µg/ml)
[24] = test system: C.freundii GN346; assay: as above; format: cell-based; conditions: Citrobacter freundii; C.freundii GN346 (β-Lactamase-producing strain); Mueller Hinton agar, inoculum 10⁶ CFU/ml, 37°C, 16 hours; read-out: Minimum Inhibitory Concentration (MIC: µg/ml)
[25] = test system: S.aureus BB5703; assay: as above; format: cell-based; conditions: Staphylococcus aureus; S.aureus BB5703; Mueller Hinton agar, inoculum 10⁶ CFU/ml, 37°C, 16 hours; read-out: Minimum Inhibitory Concentration (MIC: µg/ml)
[26] = test system: A.calcoaceticus No. 4; assay: as above; format: cell-based; conditions: Acinetobacter calcoaceticus; A.calcoaceticus No. 4; Mueller Hinton agar, inoculum 10⁶ CFU/ml, 37°C, 16 hours; read-out: Minimum Inhibitory Concentration (MIC: µg/ml)
[27] = test system: S.marcescens No. 16-2; assay: as above; format: cell-based; conditions: Serratia marcescens, NO.162; S.marcescens No. 16-2 (β-Lactamase-producing strain); Mueller Hinton agar, inoculum 10⁶ CFU/ml, 37°C, 16 hours; read-out: Minimum Inhibitory Concentration (MIC: µg/ml)
[28] = test system: E.cloacae 963; assay: as above; format: cell-based; conditions: Enterobacter cloacae; E.cloacae 963; Mueller Hinton agar, inoculum 10⁶ CFU/ml, 37°C, 16 hours; read-out: Minimum Inhibitory Concentration (MIC: µg/ml)

SMILES	MIC [2] [µg/mL]	MIC [3] [µg/mL]	MIC [4] [µg/mL]	MIC [6] [µg/mL]	MIC [7] [µg/mL]	MIC [8] [µg/mL]	MIC [9] [µg/mL]	MIC [10] [µg/mL]	MIC [11] [µg/mL]	MIC [12] [µg/mL]	MIC [13] [µg/mL]	MIC [14] [µg/mL]	MIC [15] [µg/mL]	MIC [16] [µg/mL]	MIC [17] [µg/mL]	MIC [18] [µg/mL]	MIC [19] [µg/mL]	MIC [20] [µg/mL]	MIC [21] [µg/mL]	MIC [22] [µg/mL]	other results
CO[C@@]1(NC(=O)Cc2cccs2)C(=O)N2C(C(=O)O)=C(COC(N)=O)CS[C@@H]21 [Cefoxitin, reference compound]	–	–	–	–	–	–	–	–	–	–	–	–	–	–	–	–	–	–	–	–	Specific activity (unit/mg protein) [1]: 0.238 unit/mg protein
CO/N=C(\C(=O)NC1C(=O)N2C(C(=O)[O-])=C(C[n+]3ccc4cc(OC(C)=O)c(OC(C)=O)cc4c3)CSC12)c1csc(N)n1 (stereo not shown) [Ex. 8, 3-(6,7-diacetoxy-2-isoquinolino)methyl-7-[2-(2-aminothiazol-4-yl)-2-methoxyiminoacetamido]-3-cephem-4-carboxylate]	> 100	0.2 (≈ 0.312 µM)	0.2 (≈ 0.312 µM)	< 0.006	0.05 (≈ 0.078 µM)	0.78 (≈ 1.22 µM)	0.1 (≈ 0.156 µM)	3.12 (≈ 4.87 µM)	0.78 (≈ 1.22 µM)	0.1 (≈ 0.156 µM)	50 (≈ 78 µM)	0.025 (≈ 0.039 µM)	0.78 (≈ 1.22 µM)	0.1 (≈ 0.156 µM)	0.78 (≈ 1.22 µM)	0.025 (≈ 0.039 µM)	100 (≈ 156 µM)	6.25 (≈ 9.76 µM)	0.78 (≈ 1.22 µM)	0.0125 (≈ 0.0195 µM)	MIC ([5]; NO.42, 16 h): 0.0125 µg/mL (≈ 0.0195 µM); MIC [23]: 0.2 µg/mL (≈ 0.312 µM); MIC [24]: 50 µg/mL (≈ 78 µM); MIC [25]: 12.5 µg/mL (≈ 19.5 µM); MIC [26]: 0.2 µg/mL (≈ 0.312 µM); MIC [27]: 1.56 µg/mL (≈ 2.44 µM); MIC [28]: 0.025 µg/mL (≈ 0.039 µM)
CC(C)(ON=C(C(=O)NC1C(=O)N2C(C(=O)[O-])=C(C[n+]3ccc4ccccc4c3)CSC12)c1csc(N)n1)C(=O)O (stereo not drawn) [Reference Ex. 1, sodium 7-[2-(2-aminothiazol-4-yl)-2-(l-carboxylato-l-methylethoxyimino)acetamido]-3-(2-isoquinolinio)methyl-3-cephem-4-carboxylate, reference compound]	12.5	6.25	1.56	0.0125	0.05	3.12	0.2	1.56	0.2	0.1	50	0.05	3.12	0.1	0.78	0.0125	100	6.25	0.78	0.05	MIC ([5]; K.pneumoniae No. 42 (β-Lactamase-producing strain), Mueller Hinton agar, inoculum 10⁶ CFU/ml, 37°C, 16 hours): 0.39 µg/mL; MIC [23]: 0.2 µg/mL; MIC [24]: 50 µg/mL; MIC [25]: 25 µg/mL; MIC [26]: 25 µg/mL; MIC [27]: 1.56 µg/mL; MIC [28]: 0.2 µg/mL
